Experimental data from US5290698A, “Streptoverticillium ferm P-10489 which produces antitumor agent BE-13793C” (Banyu Pharmaceutical Co., Ltd., priority 1989, dated 1994).

Tests used:
[1] = system: female ICR mice; experiment: Acute toxicity on female ICR mice; type: in vivo, mouse; conditions: 100 mg/kg i.p. once, on the 5th day
[2] = system: P388/V cells; experiment: In vitro antitumor assay, growth inhibition of vincristine-resistant P388/V cells; type: cell-based; conditions: Mus musculus, 37° C., 5% CO2, 72 hours, read-out: concentration (IC50) causing 50% inhibition on P388/V cell growth
Description: (§1) In vitro activity tests were performed for evaluating the inhibitory activities of the antitumor substance BE-13793C on mouse tumor cells. In the in vitro antitumor assay using P388 tumor cells, the test substance was first dissolved in dimethyl sulfoxide and the obtained solution was serially diluted with a cell culture medium containing 20% of dimethyl sulfoxide (20% v/v DMSO-RPMI-1640 medium). Then, 2 μl of the dilution was added to 200 μl of a cell culture medium (10% v/v fetal calf serum-RPMI-1640 medium) containing 2×10^4 or 3×10^4 tumor cells. Next, each mixture was incubated at 37° C. under 5% CO2 for 72 hours. The viable cells were then counted with a Coulter counter. The result was compared with the control data. […] The concentration (IC50) of the antitumor substance BE-13793C causing 50% inhibition on P388/S tumor cell growth was 0.7 μM, while that on P388/V cell growth was 0.7 μM.
(§2) The P388/S cells are commonly employed mouse leukemia cells while the P388/V cells are a strain of P388 leukemia cells which have acquired resistance to the anticancer agent vincristine.

[3] = Acidity/neutrality/basicity; type: physicochemical
[4] = system: P388/A cells; experiment: Growth inhibition of adriamycin-resistant P388/A cells; type: cell-based; conditions: Mus musculus, read-out: 50% inhibitory concentration (IC50) on growth of P388/A cells
Description: as §1
Furthermore, the antitumor substance BE-13793C inhibited the growth of P388/A cells, which had acquired resistance to the anticancer agent adriamycin, and the 50% inhibitory concentration (IC50) thereof was 1.0 μM.

[5] = system: P388/S tumor cells; experiment: In vitro antitumor assay, growth inhibition of P388/S tumor cells (72 h, Coulter counter); type: cell-based; conditions: Mus musculus, 37° C., 5% CO2, 72 hours, read-out: concentration (IC50) causing 50% inhibition on P388/S tumor cell growth
Description: as §1, §2

[6] = system: Ehrlich ascites cancer; experiment: Effect on Ehrlich ascites cancer transplanted in mice (survival); type: in vivo, mouse; conditions: once a day 1st to 10th day; for MST (mean survival time): female ICR mice, control 13.1 day; for MST % T/C ((treated MST/control MST) × 100): ≥125 = marked antitumor effect
Text: In this assay, 10^6 (lethal dose) tumor cells per mouse were intraperitoneally administered. Then the test substance was serially diluted and intraperitoneally administered.
^1 Inoculum: 10^6 Ehrich ascites cancer cells, intraperitoneal.
^2 Host: Female ICR mice.
^3 Treatment schedule: BE13793C was intraperitoneally administered
once a day from the 1st to the 10th day.
^4 MST: Mean survival time (in days).
^5 % T/C: (Treated MST/control MST) × 100.
^6 Criteria: When % T/C ≥ 125, the test compound was considere
to produce a marked antitumor effect at the particular dose.

[7] = Solubility; type: physicochemical

Structure (SMILES): O=C1NC(=O)c2c1c1c3cccc(O)c3[nH]c1c1[nH]c3c(O)cccc3c21 [BE-13793C]
- death (acute toxicity) [1]: no death was found
- IC50 [2]: 700 nM
- Acidity/neutrality/basicity [3]: acidic
- IC50 [4]: 1000 nM
- IC50 [5]: 700 nM
- MST (mean survival time) ([6]; 8 mg/kg/injection i.p.): 16.0 days
- MST % T/C ((treated MST/control MST) × 100) ([6]; 8 mg/kg/injection i.p.): 122%
- MST (mean survival time) ([6]; 20 mg/kg/injection i.p.): 26.4 days
- MST % T/C ((treated MST/control MST) × 100) ([6]; 20 mg/kg/injection i.p.): 202%
- MST (mean survival time) ([6]; 50 mg/kg/injection i.p.): 28.6 days
- MST % T/C ((treated MST/control MST) × 100) ([6]; 50 mg/kg/injection i.p.): 218%
- solubility in dimethyl sulfoxide ([7]; dimethyl sulfoxide): highly soluble
- solubility in methanol ([7]; methanol): soluble
- solubility in tetrahydrofuran ([7]; tetrahydrofuran): highly soluble
- solubility in water ([7]; water): hardly soluble
